Experimental data: US11261186B2, “Biaryl derivative as GPR120 agonist” (LG CHEM, LTD., priority 2014, dated 2022)
pEC50: −log10 of the molar value.

Biological target: T1, hGPR120 (Homo sapiens, UniProt Q5NUL3)
T1 construct: expressed in transfected cells; host or cells: CHO-K1
T1 sequence (Q5NUL3 1-361): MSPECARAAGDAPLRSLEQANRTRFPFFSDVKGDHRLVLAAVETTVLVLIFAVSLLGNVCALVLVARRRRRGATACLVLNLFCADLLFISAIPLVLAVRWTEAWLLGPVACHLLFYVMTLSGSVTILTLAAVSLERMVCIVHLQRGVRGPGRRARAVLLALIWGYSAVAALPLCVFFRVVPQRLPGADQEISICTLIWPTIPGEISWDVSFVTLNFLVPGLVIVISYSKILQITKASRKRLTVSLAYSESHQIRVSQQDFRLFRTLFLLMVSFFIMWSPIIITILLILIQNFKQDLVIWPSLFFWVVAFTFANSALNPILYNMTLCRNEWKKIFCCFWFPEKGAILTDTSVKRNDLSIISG
Test: Measurement of Activity of GPR120 Agonist (Cell-Based Assay), Calcium 5 dye fluorescence
Conditions: CHO-K1 cells expressing Ga16 and hGPR120
Summary of the method: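 After an 18 h incubation at 37 °C, the transfected CHO-K1 cells (Gα16, hGPR120) received Calcium 5 dye for 1 h; compound dilutions in 0.5% DMSO were then injected and emission at 525 nm recorded, with values given as % of the vehicle response.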

pEC50	Structure (SMILES)
> 6.70	CCCSc1ncccc1-c1cc(F)c(N2CCC(CC(=O)O)CC2)c(F)c1 [Example 117, 2-[1-[2,6-difluoro-4-(2-propylsulfanyl-3-pyridyl)phenyl]-4-piperidyl]acetic acid]
> 6.70	O=C(O)CCCSc1c(F)cc(-c2cccc3c2OC(F)(F)O3)cc1F [Example 153, 4-[4-(2,2-difluoro-benzo[1,3]dioxol-4-yl)-2,6-difluoro-phenylsulfanyl]-butyric acid]
5.70 to 6.70	CC(C)Sc1cccc(-c2cc(F)c(NCCCCC(=O)O)c(F)c2)n1 [Example 96, 5-[2,6-difluoro-4-(6-isopropylsulfanyl-2-pyridyl)anilino]pentanoic acid]
5.70 to 6.70	O=C(O)CCC1CCN(c2c(F)cc(-c3cccc(C4CCC4)n3)cc2F)CC1 [Example 621, 3-{1-[4-(6-cyclobutyl-pyridin-2-yl)-2,6-difluoro-phenyl]-piperidin-4-yl}-propionic acid]
5.70 to 6.70	CC(C)Sc1ncccc1-c1ccc(N2CCC(CC(=O)O)CC2)c(F)c1 [Example 138, 2-[1-[2-fluoro-4-(2-isopropylsulfanyl-3-pyridyl)phenyl]-4-piperidyl]acetic acid]
5.70 to 6.70	CC(C)Sc1cccc(-c2ccc3nc(CCC(=O)O)ccc3c2)n1 [Example 2, 3-[6-(6-isopropylsulfanyl-pyridin-2-yl)-quinolin-2-yl]-propionic acid]
5.70 to 6.70	O=C(O)CC1CCN(c2c(F)cc(-c3cccc(SC4CCC4)n3)cc2F)CC1 [Example 297, 2-[1-[4-(6-cyclobutylsulfanyl-2-pyridyl)-2,6-difluoro-phenyl]-4-piperidyl]acetic acid]
> 6.70	CC(C)Oc1ncccc1-c1cc(F)c(OCc2cc(O)no2)c(F)c1 [Example 69, 5-[[2,6-difluoro-4-(2-isopropoxy-3-pyridyl)phenoxy]methyl]isoxazol-3-ol]
> 6.70	O=C(O)CC1CCN(c2c(F)cc(-c3nccc(Oc4ccc(F)c(F)c4)n3)cc2F)CC1 [Example 517, 2-[1-[4-[4-(3,4-difluorophenoxy)pyrimidin-2-yl]-2,6-difluoro-phenyl]-4-piperidyl]acetic acid]
> 6.70	CC(C)Oc1cccc(-c2cc(F)c(N3CC(CC(=O)O)C3)c(F)c2)n1 [Example 115, 2-[1-[2,6-difluoro-4-(6-isopropoxy-2-pyridyl)phenyl]azetidin-3-yl]acetic acid]
> 6.70	CCOc1ccnc(-c2cc(F)c(N3CCC(CC(=O)O)C3)c(F)c2)n1 (stereo not shown) [Example 501, 2-{1-[2,6-difluoro-4-(4-ethoxy-pyrimidin-2-yl)phenyl]pyrrolidin-3-yl}acetic acid]
5.70 to 6.70	O=C(O)CCCOc1c(F)cc(-c2ccc(Cl)c(OCC3CC3)c2)cc1F [Example 534, 4-(4′-chloro-3′-cyclopropylmethoxy-3,5-difluoro-biphenyl-4-yloxy)-butyric acid]
5.70 to 6.70	CC(C)Sc1cccc(-c2ccc3cc(CCC(=O)O)ccc3c2)n1 [Example 140, 3-[6-(6-isopropylsulfanyl-pyridin-2-yl)-naphthalen-2-yl]-propanoic acid]
> 6.70	O=C(O)CCCCc1c(F)cc(-c2cccnc2SC2CCC2)cc1F [Example 35, 5-[4-(2-cyclobutylsulfanyl-3-pyridyl)-2,6-difluoro-phenyl]pentanoic acid]
> 6.70	O=C(O)CC1CN(c2c(F)cc(-c3cncc(OCC4CC4)n3)cc2F)C1 [Example 335, 2-[1-[4-[6-(cyclopropylmethoxy)pyrazin-2-yl]-2,6-difluoro-phenyl]azetidin-3-yl]acetic acid]
> 6.70	CC(C)Sc1cccc(-c2ccc3c(c2)CCC(CCC(=O)O)O3)n1 (stereo not shown) [Example 8, 3-[6-(6-isopropylsulfanyl-pyridin-2-yl)-chroman-2-yl]-propionic acid]
5.70 to 6.70	O=C(O)CC1CCN(c2c(F)cc(-c3nccc(Oc4ccc(C(F)(F)F)cc4)n3)cc2F)CC1 [Example 610, 2-[1-[2,6-difluoro-4-[4-[4-(trifluoromethyl)phenoxy]pyrimidin-2-yl]phenyl]-4-piperidyl]acetic acid]
5.70 to 6.70	O=C(O)CCCOc1c(F)cc(-c2cccc(COCC3CC3)n2)cc1F [Example 388, 4-[4-[6-(cyclopropylmethoxymethyl)-2-pyridyl]-2,6-difluoro-phenoxy]butanoic acid]
4.70 to 5.70	O=C(O)COc1ccc2cc(-c3cccnc3OC3CCCC3)ccc2c1 [Example 4, [6-(2-cyclopentyloxy-pyridin-3-yl)-naphthalen-2-yloxy]-acetic acid]
5.70 to 6.70	CC(C)Sc1ncccc1-c1cc(F)c2c(c1)CCC(CCC(=O)O)S2 (stereo not shown) [Example 440, 3-[8-fluoro-6-(2-isopropylsulfanyl-3-pyridyl)thiochroman-2-yl]propanoic acid]
5.70 to 6.70	O=C(O)CC1CCN(c2c(F)cc(-c3cccc(C(=O)C4CC4)n3)cc2F)CC1 [Example 312, 2-[1-[4-[6-(cyclopropanecarbonyl)-2-pyridyl]-2,6-difluoro-phenyl]-4-piperidyl]acetic acid]

Structure (SMILES)	pEC50
O=C(O)CCCOc1c(F)cc(-n2ncc3ccc(OC4CCC4)cc32)cc1F [Example 482, 4-[4-[6-(cyclobutoxy)indazol-1-yl]-2,6-difluoro-phenoxy]butanoic acid]	> 6.70
CCCCOc1cccc(-c2cc(F)c(N3CCC(CC(=O)O)CC3)c(F)c2)n1 [Example 324, 2-[1-[4-(6-butoxy-2-pyridyl)-2,6-difluoro-phenyl]-4-piperidyl]acetic acid]	5.70 to 6.70
Cc1cc(-c2cc(F)c(N3CCC(CC(=O)O)CC3)c(F)c2)nc(OC2CCC2)n1 [Example 325, 2-[1-[4-[2-(cyclobutoxy)-6-methyl-pyrimidin-4-yl]-2,6-difluoro-phenyl]-4-piperidyl]acetic acid]	5.70 to 6.70
CC(Cc1cc(O)no1)c1c(F)cc(-c2cccnc2OC2CCCC2)cc1F (stereo not shown) [Example 88, 5-[2-[4-[2-(cyclopentoxy)-3-pyridyl]-2,6-difluoro-phenyl]propyl]isoxazol-3-ol]	> 6.70
O=C(O)CCCOc1c(F)cc(-c2csc(OC3CCC3)n2)cc1F [Example 394, 4-[4-[2-(cyclobutoxy)thiazol-4-yl]-2,6-difluoro-phenoxy]butanoic acid]	> 6.70
O=C(O)CCCOc1c(F)cc(-n2ccc3ccc(OC4CCC4)cc32)cc1F [Example 476, 4-[4-[6-(cyclobutoxy)indol-1-yl]-2,6-difluoro-phenoxy]butanoic acid]	> 6.70
Cc1cc(OCC(C)C)nc(-c2cc(F)c(N3CCC(CC(=O)O)CC3)c(F)c2)n1 [Example 352, 2-[1-[2,6-difluoro-4-(4-isobutoxy-6-methyl-pyrimidin-2-yl)phenyl]-4-piperidyl]acetic acid]	5.70 to 6.70
O=C(O)CCc1ccc2cc(-c3cccc(OC4CCC4)c3)ccc2c1 [Example 147, 3-[6-(3-cyclobutoxy-phenyl)-naphthalen-2-yl]-propanoic acid]	> 6.70
CC(C)COc1cncc(-c2cc(F)c(N3CCC(CC(=O)O)CC3)c(F)c2)n1 [Example 342, 2-[1-[2,6-difluoro-4-(6-isobutoxypyrazin-2-yl)phenyl]-4-piperidyl]acetic acid]	> 6.70
COc1ccc(-c2cc(F)c(N(C)CCCC(=O)O)c(F)c2)nc1OC1CCC1 [Example 456, 4-[4-[6-(cyclobutoxy)-5-methoxy-2-pyridyl]-2,6-difluoro-N-methyl-anilino]butanoic acid]	> 6.70
